Values of other authors in patent publication US11179330B2, “Doxepin oral transmucosal film” (Xiamen LP Pharmaceutical Co., Ltd., priority 2019, dated 2021).
Structures can show the parent of a compound that is named as a salt.

Columns and labels:
[1] = patients

mean oral bioavailability	Structure (SMILES)	sleep maintained [1]
–	CN(C)CCC=C1c2ccccc2COc2ccccc21 [Doxepin hydrochloride]	7 to 8 h
13-45%	CN(C)CCC=C1c2ccccc2COc2ccccc21 [Doxepin]	–
